Measurements taken from PubChem BioAssay (NCI).
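Tested at 5 concentrations; 48 h exposure; 96-well plates; endpoints linearly interpolated, else capped at highest concentration. GI50 is the concentration that inhibits growth by half. The concentration for full growth arrest is given as TGI.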

What was measured:
Assay in all cases: DTP human tumour cell line panel, 48 h
[1] = system: HCC-2998 colon
[2] = system: K-562 leukemia
[3] = system: LOX IMVI melanoma
[4] = system: NCI-H23 lung
[5] = system: OVCAR-3 ovarian
[6] = system: OVCAR-4 ovarian
[7] = system: SNB-75 CNS
[8] = system: T-47D breast
[9] = system: TK-10 renal
[10] = system: U251 CNS

Compound | GI50 [1] | TGI [1] | GI50 [2] | TGI [2] | GI50 [3] | TGI [3] | GI50 [4] | TGI [4] | GI50 [5] | TGI [5] | GI50 [6] | TGI [6] | GI50 [7] | TGI [7] | GI50 [8] | TGI [8] | GI50 [9] | TGI [9] | GI50 [10] | TGI [10]
CCCN(CCC)c1ccc(/C=N/NC(=O)c2cccnc2)c(C)c1 | 14.3 µM | 32.1 µM | 10.5 µM | 54.6 µM | 13.5 µM | 27.6 µM | 14.4 µM | 32.1 µM | 13 µM | 27.8 µM | 15.3 µM | 78.5 µM | 12.5 µM | 36.1 µM | 6.35 µM | 27.6 µM | 16 µM | 38.5 µM | 13.3 µM | 26 µM
Oc1ccc(N=Nc2ccc(Br)cc2)c(O)c1 | 3.55 µM | 12 µM | 1.31 µM | 3.75 µM | 8.05 µM | 61.1 µM | 3.22 µM | 26.9 µM | 3.2 µM | 14.7 µM | 6.31 µM | > 100 µM | 2.79 µM | 21.8 µM | 2.93 µM | 42.3 µM | 4.95 µM | 24.8 µM | 3.59 µM | 24.8 µM
CCOC(=O)c1ccc(N2NC(=O)/C(=C/c3ccc([N+](=O)[O-])o3)C2=O)cc1 | > 41.8 µM | > 56.5 µM | 9.64 µM | > 73.3 µM | 17.7 µM | 34.4 µM | 21 µM | 52.6 µM | 6.82 µM | 17.1 µM | 17 µM | 30.9 µM | 27.6 µM | > 51.5 µM | 8.92 µM | 33.4 µM | 9.04 µM | 23.2 µM | 39.9 µM | > 66.6 µM
CC(C)(C)c1cc(C[P+](c2ccccc2)(c2ccccc2)c2ccccc2)cc(C(C)(C)C)c1O | 0.491 µM | 10.2 µM | 0.341 µM | 4.64 µM | 0.457 µM | 1.89 µM | 0.365 µM | 8.21 µM | 0.359 µM | 10.2 µM | 0.337 µM | 9.16 µM | 0.369 µM | 6.18 µM | 0.2 µM | 1.01 µM | 0.486 µM | 3.25 µM | 0.268 µM | 3.76 µM
CCc1cc2c(c(OCC(F)(F)F)c(C(=O)NC3CCN(C(=O)CO)CC3)n2C)c(=O)n1CC(=O)c1ccccc1 | > 78 µM | > 100 µM | 34.4 µM | > 100 µM | > 80 µM | > 100 µM | 99.7 µM | > 100 µM | > 100 µM | > 100 µM | > 72.2 µM | > 100 µM | > 33.9 µM | > 100 µM | > 65.9 µM | > 100 µM | > 100 µM | > 100 µM | > 82.9 µM | > 100 µM
COc1ccc(C(=O)/C=C/c2cc(-c3ccc(OC)c(OC)c3)n[nH]2)cc1OC | 1.74 µM | 3.19 µM | 0.619 µM | > 100 µM | 1.29 µM | 2.7 µM | 2.25 µM | 5.7 µM | 1.96 µM | 4.72 µM | 1.92 µM | 8.15 µM | 1.16 µM | 2.96 µM | 1.36 µM | 6.65 µM | 4.96 µM | 47.7 µM | 1.2 µM | 2.63 µM
